From DBAASP come the findings set out here.

Common to all, as to experiment: ≥ marks a high value that may be exact or a test limit, other limits are often not marked, values filed in µg/mL are converted to µM
In experiment [1] the test system is Candida albicans ATCC 2048.
In experiment [2] the test system is Candida glabrata ATCC 90525.
The test system of experiment [3] is Candida krusei ATCC 6258.
Experiment [4] has as its system Candida parapsilosis ATCC 20224.
The subject of experiment [5] is Candida tropicalis ATCC 20240.
Experiment [6] concerns Klebsiella aerogenes ATCC 13048.
In experiment [7] the test system is Klebsiella pneumoniae ATCC 700603.
Experiment [8] deals with Lacticaseibacillus casei HZ1.
In experiment [9] the test system is Listeria monocytogenes ATCC 7611.
Experiment [10] concerns Saccharomyces cerevisiae.
The subject of experiment [11] is Staphylococcus aureus ATCC 29213.
For experiment [12], the system named is Bacillus subtilis subsp. subtilis CIP 52.65.
Experiment [13] deals with Enterococcus faecalis ATCC 29212.
The test system of experiment [14] is Enterococcus faecium BM4147.
The test system of experiment [15] is Escherichia coli ATCC 35218.
Experiment [16] has as its system Escherichia coli ATCC 8739.
The subject of experiment [17] is Escherichia coli K-12.
Experiment [18] has as its system Escherichia coli ML-35p.
In experiment [19] the test system is Kocuria rhizophila ATCC 9341.
Experiment [20] concerns Pseudomonas aeruginosa ATCC 27853.
In experiment [21] the test system is Staphylococcus aureus ATCC 6538.
For experiment [22], the system named is Staphylococcus aureus DAR 5829.
In experiment [23] the test system is Staphylococcus aureus ST1065.
Experiment [24] deals with Staphylococcus epidermidis BM3302.
The test system of experiment [25] is Candida albicans KCTC 7270.
Experiment [26] has as its system Escherichia coli CCARM 1229.
Experiment [27] has as its system Escherichia coli CCARM 1238.
Experiment [28] has as its system Pseudomonas aeruginosa 4007.
Experiment [29] relates to Pseudomonas aeruginosa 4891.
The test system of experiment [30] is Staphylococcus aureus CCARM 3090.
Experiment [31] deals with Staphylococcus aureus CCARM 3518.
Experiment [32] has as its system Trichosporon beigelii KCTC 7707.
In experiment [33] the test system is Bacillus megaterium Bm11.
The test system of experiment [34] is Escherichia coli D21.
Experiment [35] relates to Escherichia coli ML-35.
For experiment [36], the system named is Salmonella enterica subsp. enterica serovar Typhimurium ATCC 14028.
For experiment [37], the system named is Serratia marcescens ATCC 8100.
Experiment [38] relates to Staphylococcus epidermidis ATCC 12228.
For experiment [39], the system named is Escherichia coli ATCC 25922.
Experiment [40] concerns Escherichia coli NCTC 10418.
In experiment [41] the test system is Staphylococcus aureus ATCC 25923.
Experiment [42] concerns Staphylococcus aureus NCTC 12981.

In brackets after ≈: the same amount, converted by molar mass.

Broadly, the MIC is the least concentration at which growth counts as inhibited. Take `C[C@H](NC(=O)CN)C(=O)N[C@@H](CCCCN)C(=O)N[C@@H](CCC(=O)O)C(=O)N[C@@H](CCCN=C(N)N)C(=O)N[C@@H](C)C(=O)N[C@@H](Cc1cnc[nH]1)C(=O)N[C@@H](CCC(N)=O)C(=O)O` [GAKERAHQ]: the MIC was at least 240 µM in [1]; at least 300 µM in experiment [2]; at least 240 µM in experiment [3]; at least 300 µM in experiment [4]; at least 290 µM in experiment [5].
As to `CC(C)C[C@H](NC(=O)[C@H](Cc1ccccc1)NC(=O)[C@H](CCCCN)NC(=O)[C@H](Cc1ccccc1)NC(=O)[C@H](Cc1ccccc1)NC(=O)[C@H](Cc1cnc[nH]1)NC(=O)[C@@H](NC(=O)[C@H](Cc1c[nH]c2ccccc12)NC(=O)[C@@H](NC(=O)[C@H](CO)NC(=O)[C@@H]1CCCN1C(=O)[C@H](CC(C)C)NC(=O)[C@H](Cc1ccccc1)NC(=O)[C@H](CC(C)C)NC(=O)[C@H](CCCCN)NC(=O)[C@H](CC(C)C)NC(=O)[C@@H]1CCCN1C(=O)[C@H](CC(N)=O)NC(=O)CN)[C@@H](C)O)C(C)C)C(=O)N[C@@H](CCCN=C(N)N)C(=O)O` [GNPLKLFLPSTWVHFFKFLR], the MIC in [6] is at least 64 µM; in [7], above 256 µM; in [8], at least 32 µM; in [9] it was 4 µM (≈ 9.79 µg/mL); in [10], at least 256 µM; in experiment [11], 4 µM (≈ 9.79 µg/mL).
On to `CC[C@H](C)[C@H](NC(=O)CNC(=O)[C@H](Cc1c[nH]c2ccccc12)NC(=O)[C@@H](NC(=O)CN)C(C)C)C(=O)N[C@@H](C)C(=O)N[C@@H](CCCCN)C(=O)N[C@H](C(=O)N[C@@H](C)C(=O)NCC(=O)N[C@@H](CCCCN)C(=O)N[C@H](C(=O)N[C@@H](CC(C)C)C(=O)NCC(=O)N[C@@H](CC(N)=O)C(=O)N[C@H](C(=O)N[C@@H](CC(C)C)C(=O)N1CCC[C@H]1C(=O)N[C@@H](Cc1cnc[nH]1)C(=O)N[C@H](C(=O)N[C@@H](Cc1ccccc1)C(=O)N[C@@H](CO)C(=O)N[C@@H](CO)C(=O)N[C@@H](CC(N)=O)C(=O)N[C@@H](CCC(N)=O)C(=O)N[C@@H](CO)C(N)=O)C(C)C)[C@@H](C)CC)C(C)C)[C@@H](C)CC` [GVWGIAKIAGKVLGNILPHVFSSNQS], for which the MIC in [12] is 6.25 µM (≈ 16.8 µg/mL); in experiment [13], 50 µM (≈ 135 µg/mL); in experiment [14] it was 25 µM (≈ 67.3 µg/mL); in [15], at least 100 µM; in experiment [16], 25 µM (≈ 67.3 µg/mL); in experiment [17], at least 100 µM. In addition, the MIC in experiment [18] was at least 100 µM; in experiment [19] it was 3.12 µM (≈ 8.4 µg/mL); in experiment [20] it was above 100 µM; in [11], 3.12 µM (≈ 8.4 µg/mL); in [21], 6.25 µM (≈ 16.8 µg/mL); in experiment [22], 25 µM (≈ 67.3 µg/mL). Moreover, the MIC in experiment [23] and in experiment [24] was 12.5 µM (≈ 33.7 µg/mL) throughout.
With `CC[C@H](C)[C@H](NC(=O)[C@H](CC(C)C)NC(=O)[C@H](CCCCN)NC(=O)[C@@H](NC(=O)[C@H](C)NC(=O)[C@H](CCC(=O)O)NC(=O)[C@H](Cc1cnc[nH]1)NC(=O)[C@@H](NC(=O)[C@H](CCCCN)NC(=O)[C@H](CCC(N)=O)NC(=O)[C@H](Cc1ccccc1)NC(=O)[C@@H](NC(=O)[C@H](CCCCN)NC(=O)[C@H](CCCCN)NC(=O)[C@H](CC(C)C)NC(=O)[C@H](C)NC(=O)[C@H](CC(N)=O)NC(=O)[C@@H](N)CC(C)C)C(C)C)[C@@H](C)CC)[C@@H](C)CC)C(N)=O` [LNALKKVFQKIHEAIKLI], the minimal inhibitory concentration (MIC) in experiment [25] came to 16 µM (≈ 33.7 µg/mL); in [26], 2 µM (≈ 4.21 µg/mL); in experiment [27] it was 2 µM (≈ 4.21 µg/mL); in experiment [28] it was 2 µM (≈ 4.21 µg/mL); in [29], 4 µM (≈ 8.42 µg/mL); in [30], 4 µM (≈ 8.42 µg/mL). Further, the results for the MIC in [31] and in experiment [32] were 4 µM (≈ 8.42 µg/mL) and 8 µM (≈ 16.8 µg/mL), respectively.
Turning to `CC(C)C[C@H](NC(=O)[C@H](Cc1ccc(O)cc1)NC(=O)[C@@H]1CCCN1C(=O)[C@@H]1CCCN1C(=O)[C@H](CCCN=C(N)N)NC(=O)[C@@H]1CCCN1C(=O)[C@H](CCCN=C(N)N)NC(=O)[C@H](CCCN=C(N)N)NC(=O)[C@@H](N)CCCN=C(N)N)C(=O)N[C@@H](CCCN=C(N)N)C(=O)N1CCC[C@H]1C(=O)N[C@@H](CCCN=C(N)N)C(=O)N1CCC[C@H]1C(=O)N1CCC[C@H]1C(=O)N1CCC[C@H]1C(=O)O` [RRRPRPPYLRPRPPP], the minimal inhibitory concentration (MIC) in experiment [33] was at least 32 µM; in experiment [34] it was 16 µM (≈ 30.6 µg/mL); in experiment [35], at least 32 µM; in [36], 32 µM (≈ 61.2 µg/mL); in experiment [37], at least 32 µM; in [38], above 64 µM.
Consider `NC(=O)[C@H](Cc1c[nH]c2ccccc12)NC(=O)[C@H](CCCN=C(N)N)NC(=O)[C@@H](N)Cc1c[nH]c2ccccc12` [WRW], for which the MIC in experiment [39] was above 366 µM; in experiment [40], at least 234 µM; in experiment [41], 183 µM (≈ 99.8 µg/mL); in experiment [42], at least 234 µM.
